{"source": "PubChem BioAssay (NCI)", "assay_in_all_cases": "NCI tumour cell line growth inhibition, 384-well format", "key": {"[1]": {"system": "NCI-H23 lung"}, "[2]": {"system": "MCF7 breast"}, "[3]": {"system": "NCI/ADR-RES ovarian"}, "[4]": {"system": "HCT-15 colon"}, "[5]": {"system": "SK-MEL-28 melanoma"}, "[6]": {"system": "M14 melanoma"}, "[7]": {"system": "SN12C renal"}, "[8]": {"system": "NCI-H226 lung"}, "[9]": {"system": "HT29 colon"}, "[10]": {"system": "LOX IMVI melanoma"}, "[11]": {"system": "IGROV1 ovarian"}, "[12]": {"system": "CCRF-CEM leukemia"}, "[13]": {"system": "BT-549 breast"}, "[14]": {"system": "HOP-62 NSCLC"}, "[15]": {"system": "CAKI-1 renal"}, "[16]": {"system": "SNB-75 CNS"}, "[17]": {"system": "HCC-2998 colon"}, "[18]": {"system": "UACC-257 melanoma"}, "[19]": {"system": "EKVX NSCLC"}, "[20]": {"system": "HCT-116 colon"}, "[21]": {"system": "SK-MEL-5 melanoma"}, "[22]": {"system": "OVCAR-3 ovarian"}, "[23]": {"system": "MOLT-4 leukemia"}, "[24]": {"system": "OVCAR-5 ovarian"}, "[25]": {"system": "SK-OV-3 ovarian"}, "[26]": {"system": "RXF 393 renal"}, "[27]": {"system": "DU-145 prostate"}, "[28]": {"system": "HOP-92 NSCLC"}, "[29]": {"system": "T-47D breast"}}, "note": "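At the GI50, growth is halved. At the TGI there is no net growth.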", "data": [{"smiles": "CC1(O)CC(c2nc(-c3ccc4ccc(-c5ccccc5)nc4c3)c3c(N)nccn23)C1", "note": "(stereo not drawn)", "values": [{"measurement": "GI50", "setting": "[1]", "result": 2.17, "unit": "µM"}, {"measurement": "TGI", "setting": "[1]", "result": 14.9, "unit": "µM"}, {"measurement": "GI50", "setting": "[2]", "result": 0.182, "unit": "µM"}, {"measurement": "TGI", "setting": "[2]", "result": 13.4, "unit": "µM"}, {"measurement": "GI50", "setting": "[3]", "result": 5.47, "unit": "µM"}, {"measurement": "TGI", "setting": "[3]", "result": 18.7, "unit": "µM"}, {"measurement": "GI50", "setting": "[4]", "result": 3.09, "unit": "µM"}, {"measurement": "TGI", "setting": "[4]", "result": 14.6, "unit": "µM"}, {"measurement": "GI50", "setting": "[5]", "result": 13.8, "unit": "µM"}, {"measurement": "TGI", "setting": "[5]", "result": 26.7, "unit": "µM"}, {"measurement": "GI50", "setting": "[6]", "result": 10.5, "unit": "µM"}, {"measurement": "TGI", "setting": "[6]", "result": 22.4, "unit": "µM"}, {"measurement": "GI50", "setting": "[7]", "result": 12.8, "unit": "µM"}, {"measurement": "TGI", "setting": "[7]", "result": 25.6, "unit": "µM"}, {"measurement": "GI50", "setting": "[8]", "result": 2.86, "unit": "µM"}, {"measurement": "TGI", "setting": "[8]", "result": 12.2, "unit": "µM"}, {"measurement": "GI50", "setting": "[9]", "result": 0.306, "unit": "µM"}, {"measurement": "TGI", "setting": "[9]", "result": 16, "unit": "µM"}, {"measurement": "GI50", "setting": "[10]", "result": 11.1, "unit": "µM"}, {"measurement": "TGI", "setting": "[10]", "result": 23.2, "unit": "µM"}, {"measurement": "GI50", "setting": "[11]", "result": 10.7, "unit": "µM"}, {"measurement": "TGI", "setting": "[11]", "result": 24.1, "unit": "µM"}, {"measurement": "GI50", "setting": "[12]", "result": 5.63, "unit": "µM"}, {"measurement": "TGI", "setting": "[12]", "result": 17.9, "unit": "µM"}, {"measurement": "GI50", "setting": "[13]", "result": 5.8, "unit": "µM"}, {"measurement": "TGI", "setting": "[13]", "result": 18.2, "unit": "µM"}, {"measurement": "GI50", "setting": "[14]", "result": 7.05, "unit": "µM"}, {"measurement": "TGI", "setting": "[14]", "result": 20.3, "unit": "µM"}, {"measurement": "GI50", "setting": "[15]", "result": 5.36, "unit": "µM"}, {"measurement": "TGI", "setting": "[15]", "result": 18.3, "unit": "µM"}, {"measurement": "GI50", "setting": "[16]", "result": 10.3, "unit": "µM"}, {"measurement": "TGI", "setting": "[16]", "result": 22, "unit": "µM"}, {"measurement": "GI50", "setting": "[17]", "result": 8.12, "unit": "µM"}, {"measurement": "TGI", "setting": "[17]", "result": 20.7, "unit": "µM"}, {"measurement": "GI50", "setting": "[18]", "result": 10.7, "unit": "µM"}, {"measurement": "TGI", "setting": "[18]", "result": 22.5, "unit": "µM"}, {"measurement": "GI50", "setting": "[19]", "result": 2.74, "unit": "µM"}, {"measurement": "TGI", "setting": "[19]", "result": 16.9, "unit": "µM"}, {"measurement": "GI50", "setting": "[20]", "result": 7.55, "unit": "µM"}, {"measurement": "TGI", "setting": "[20]", "result": 20.7, "unit": "µM"}, {"measurement": "GI50", "setting": "[21]", "result": 2.43, "unit": "µM"}, {"measurement": "TGI", "setting": "[21]", "result": 12, "unit": "µM"}, {"measurement": "GI50", "setting": "[22]", "result": 10.5, "unit": "µM"}, {"measurement": "TGI", "setting": "[22]", "result": 22.4, "unit": "µM"}, {"measurement": "GI50", "setting": "[23]", "result": 2.89, "unit": "µM"}, {"measurement": "TGI", "setting": "[23]", "result": 10.4, "unit": "µM"}, {"measurement": "GI50", "setting": "[24]", "result": 12.7, "unit": "µM"}, {"measurement": "TGI", "setting": "[24]", "result": 25.9, "unit": "µM"}, {"measurement": "GI50", "setting": "[25]", "result": 8.99, "unit": "µM"}, {"measurement": "TGI", "setting": "[25]", "result": 21, "unit": "µM"}, {"measurement": "GI50", "setting": "[26]", "result": 2.76, "unit": "µM"}, {"measurement": "TGI", "setting": "[26]", "result": 9.01, "unit": "µM"}, {"measurement": "GI50", "setting": "[27]", "result": 5.74, "unit": "µM"}, {"measurement": "TGI", "setting": "[27]", "result": 20.3, "unit": "µM"}, {"measurement": "GI50", "setting": "[28]", "result": 2.73, "unit": "µM"}, {"measurement": "TGI", "setting": "[28]", "result": 15.3, "unit": "µM"}, {"measurement": "GI50", "setting": "[29]", "result": 4.67, "unit": "µM"}, {"measurement": "TGI", "setting": "[29]", "result": 14.3, "unit": "µM"}]}]}
